Reference: patent US20090176887A1, “Biocidal Compositions and Methods” (priority 2006, published 2009)

Experiments:
Assay in all cases: Broth dilution method for determining MIC
Settings in all cases: pH adjusted to about 7, blend as ascorbic acid:ADBAC/DDAC
[1] = tested on: P. aeruginosa; type: cell-based, Pseudomonas aeruginosa
Procedure: (§1) The synergistic activities of different components in a composition (control, conventional comparative, or of the present technology) is determined by the method described by Kull et al. in […], Vol. 9, pages 538-541 (1961), which uses a synergy index to indicates whether synergy exists. A synergy index less than one (<1) indicates synergy; a synergy index of one (1) indicates additivity; a synergy index greater than one (>1) indicates antagonism.
(§2) When applied to Example 1 below, the synergy index of L-ascorbic acid and ADBAC/DDAC can be determined by the following equation:
(§3) Synergy Index=Qa/QA+Qb/QB, […]
(§4) The Minimum Inhibitory Concentration (MIC) of a chemical against a certain bacterium is determined according to the broth dilution method described in National Committee for Clinical Laboratory Standards entitled, “Methods for Dilution Antimicrobial Susceptibility Test for Bacteria that Grow Aerobically” document M7-A2, 2nd ed., 10:8, 1990. […]
(§5) In this example, standard MIC values of ascorbic acid, ADBAC/DDAC, and a 1:1 blend of ascorbic acid and ADBAC/DDAC were determined against E coli, S. aureus, and P. aeruginosa according to the broth dilution method introduced above. […] The synergy index of the 1:1 blend of ascorbic acid and ADBAC/DDAC against each of the biocidal targets was then calculated according to the method as described above.

[2] = tested on: E coli; type: cell-based, Escherichia coli
Procedure: as §1, §2, §3, §4, §5

[3] = tested on: S. aureus; type: cell-based, Staphylococcus aureus
Procedure: as §1, §2, §3, §4, §5

Measured: MIC

O=C1O[C@H]([C@@H](O)CO)C(O)=C1O [L-Ascorbic Acid]
>10,000 ppm, active: all assays above
